Literature values, collected in patent US20260083720A1 (Vyluma Inc., priority 2022, published 2026).

Legend:
myopia progression [1] = settings: Wei et al., atropine-placebo group
myopia progression [2] = settings: Yam et al., atropine at 0.01%; dose-dependent between 0.05% and 0.01%
myopia progression [3] = settings: Chan, 0.01% concentration, period of 6 months
myopia progression [4] = settings: Hieda et al., atropine group

Compound: CN1[C@@H]2CC[C@H]1C[C@@H](OC(=O)C(CO)c1ccccc1)C2 (some centres unmarked) [atropine]
- mean myopia progression after 24 months (myopia progression [1]): −1.26 D
- effect of atropine on myopia progression (myopia progression [2]): only relatively small effects
- changes in mean SER and AL (myopia progression [3]): can be reduced
- mean AL changes at 24 mo (myopia progression [4]; placebo 0.77): 0.63 mm
- Mean SER changes at 24 mo (myopia progression [4]; placebo −1.48): −1.26 D
